Test results taken from patent US20220169632A1, “METHODS AND MATERIALS FOR INCREASING OR MAINTAINING NICOTINAMIDE MONONUCLEOTIDE ADENYLYL TRANSFERASE-2 (NMNAT2) POLYPEPTIDE LEVELS” (University of Pittsburgh - Of the Commonwealth System of …, priority 2019, published 2022).

Test system: NMNAT2
Experiment: NMNAT2-Hibit nano-luciferase activity in transfected U87MG cells, 5 μM, 48 hours
Assay type: cell-based
Details: NMNAT2-Hibit luciferase plasmid, 48 hours (Table D)
Experimental: Selected compounds were tested in vitro. Briefly, U87MG cells were transfected with NMNAT2-Hibit luciferase plasmid. Cells were treated with test compound at 5 μM for 48 hours. Cells were then collected and assayed for nano-luciferase activity.

Row | SMILES | D: compound efficacy for NMNAT2 activation; increase in NMNAT2 luciferase activity
1 | Cc1ccc(Cn2cc(CCC(=O)NCC3=CC=CC3)c3ccccc32)cc1 [BC181239] | + (“+” <20% increase in NMNAT2 luciferase activity.)
2 | CC1CCCCN1C(=O)Cn1cc(C(=O)c2ccccc2)c2ccccc21 (centres unmarked) [BC181218] | + (“+” <20% increase in NMNAT2 luciferase activity.)
3 | O=C(Cn1cc(C(=O)c2ccncc2)c(=O)c2cc(Br)ccc21)NCc1ccccc1 [BC181256] | + (“+” <20% increase in NMNAT2 luciferase activity.)
4 | CCc1cccc2c(C(=O)C(=O)NCCc3ccccc3)cn(Cc3ccccc3)c12 [BC181228] | + (“+” <20% increase in NMNAT2 luciferase activity.)
5 | CC(=O)c1cn(CC(=O)NCc2ccncc2)c2ccccc12 [BC181266] | + (“+” <20% increase in NMNAT2 luciferase activity.)
6 | O=C(Cn1cc(C(=O)C2CCCCC2)c2ccccc21)NCc1ccco1 [BC181220] | +++ (“+++” >100% increase in NMNAT2 luciferase activity.)
7 | COCCNC(=O)CCCc1cn(Cc2ccc(C)cc2)c2ccccc12 [BC181234] | ++ (“++” >20% and <100% increase in NMNAT2 luciferase activity.)
8 | Cc1c(C)n(Cc2ccccc2)c2ccc(C(=O)NCc3ccco3)cc12 [BC181247] | +++ (“+++” >100% increase in NMNAT2 luciferase activity.)
9 | Cc1ccc(Cn2cc(C(CC(=O)NCc3ccco3)c3cccc(C)c3)c3ccccc32)cc1 (centres unmarked) [BC181259] | ++ (“++” >20% and <100% increase in NMNAT2 luciferase activity.)
10 | Cc1ccc2c(c1)c(=O)c(C(=O)c1ccncc1)cn2CC(=O)NCc1ccc(Cl)cc1 [BC181251] | ++ (“++” >20% and <100% increase in NMNAT2 luciferase activity.)
11 | O=C(Cn1cc(C(=O)c2ccccc2)c2ccccc21)NCc1ccc2c(c1)OCO2 [BC181216] | + (“+” <20% increase in NMNAT2 luciferase activity.)
12 | Cc1ccc(Cn2cc(CCC(=O)NCc3ccco3)c3ccccc32)cc1 [BC181240] | + (“+” <20% increase in NMNAT2 luciferase activity.)
13 | Cc1ccccc1Cn1cc(CCC(=O)NCC2=CC=CC2)c2ccccc21 [BC181242] | + (“+” <20% increase in NMNAT2 luciferase activity.)
14 | Cc1ccccc1Cn1cc(CCC(=O)NCC2=CC=CC2)c2ccccc21 [BC181238] | ++ (“++” >20% and <100% increase in NMNAT2 luciferase activity.)
15 | Cc1ccc2c(c1)c(=O)c(C(=O)c1ccncc1)cn2CC(=O)NCc1ccc(F)cc1 [BC181252] | ++ (“++” >20% and <100% increase in NMNAT2 luciferase activity.)
16 | COCCNC(=O)Cn1cc(C(=O)c2ccccc2)c2ccccc21 [BC181214] | + (“+” <20% increase in NMNAT2 luciferase activity.)
17 | Cc1ccc(CNC(=O)c2ccc3c(c2)c(C)c(C)n3Cc2ccccc2)o1 [BC181248] | ++ (“++” >20% and <100% increase in NMNAT2 luciferase activity.)
18 | Cc1ccc(Cn2cc(C(CC(=O)NCc3ccco3)c3ccc(C)cc3)c3ccccc32)cc1 (centres unmarked) [BC181258] | ++ (“++” >20% and <100% increase in NMNAT2 luciferase activity.)
19 | O=C(Cn1cc(C(=O)C2CC2)c2ccccc21)NCc1ccco1 [BC181202] | + (“+” <20% increase in NMNAT2 luciferase activity.)

Row | SMILES | D: compound efficacy for NMNAT2 activation; increase in NMNAT2 luciferase activity
20 | Cc1cccc(NC(=O)Cn2cc(C(=O)c3ccccc3)c3ccccc32)c1C [BC181210] | ++ (“++” >20% and <100% increase in NMNAT2 luciferase activity.)
21 | CC(=O)c1cn(CC(=O)NCCn2ccc3ccc(C)cc32)c2ccccc12 [BC181268] | ++ (“++” >20% and <100% increase in NMNAT2 luciferase activity.)
22 | Cc1cccc(NC(=O)Cn2cc(C(=O)c3ccccc3)c3ccccc32)c1 [BC181208] | + (“+” <20% increase in NMNAT2 luciferase activity.)
23 | Cc1ccc(C)c(Cn2cc(CCC(=O)NCc3ccco3)c3ccccc32)c1 [BC181245] | ++ (“++” >20% and <100% increase in NMNAT2 luciferase activity.)
24 | Cc1ccccc1Cn1cc(CCC(=O)NCc2ccco2)c2ccccc21 [BC181237] | ++ (“++” >20% and <100% increase in NMNAT2 luciferase activity.)
25 | Cc1ccc(Cn2cc(CCCC(=O)NCc3ccco3)c3ccccc32)cc1 [BC181230] | +++ (“+++” >100% increase in NMNAT2 luciferase activity.)
26 | Cc1ccc(Cn2cc(C(CC(=O)NCc3ccco3)c3ccccc3C)c3ccccc32)cc1 (centres unmarked) [BC181260] | ++ (“++” >20% and <100% increase in NMNAT2 luciferase activity.)
27 | COc1ccc(Cn2cc(C(CC(=O)NCc3ccco3)C(C)(C)C)c3ccccc32)cc1 (centres unmarked) [BC181263] | ++ (“++” >20% and <100% increase in NMNAT2 luciferase activity.)
28 | Cc1ccc2c(c1)c(=O)c(C(=O)c1ccncc1)cn2CC(=O)NCc1ccccc1 [BC181249] | + (“+” <20% increase in NMNAT2 luciferase activity.)
29 | CC(=O)c1cn(CC(=O)NCc2ccc(C)cc2)c2ccccc12 [BC181267] | + (“+” <20% increase in NMNAT2 luciferase activity.)
30 | Cc1ccccc1Cn1cc(CCCC(=O)NCc2ccco2)c2ccccc21 [BC181235] | ++ (“++” >20% and <100% increase in NMNAT2 luciferase activity.)
31 | Cc1ccc(CNC(=O)Cn2cc(C(=O)c3ccncc3)c(=O)c3cc(C)c(C)cc32)cc1 [BC181255] | + (“+” <20% increase in NMNAT2 luciferase activity.)
32 | O=C(Cn1cc(C(=O)c2ccccc2)c2ccccc21)NCc1ccco1 [BC181206] | ++ (“++” >20% and <100% increase in NMNAT2 luciferase activity.)
33 | Cc1cc2c(=O)c(C(=O)c3ccncc3)cn(CC(=O)NCc3ccccc3)c2cc1C [BC181254] | ++ (“++” >20% and <100% increase in NMNAT2 luciferase activity.)
34 | Cc1ccc(NC(=O)Cn2cc(C(=O)c3ccccc3)c3ccccc32)cc1C [BC181212] | + (“+” <20% increase in NMNAT2 luciferase activity.)
35 | O=C(CC(CCc1ccccc1)c1cn(Cc2ccccc2)c2ccccc12)NCc1ccco1 (centres unmarked) [BC181264] | + (“+” <20% increase in NMNAT2 luciferase activity.)
36 | Cc1ccc(CNC(=O)Cn2cc(C(=O)c3ccncc3)c(=O)c3cc(C)ccc32)cc1 [BC181250] | + (“+” <20% increase in NMNAT2 luciferase activity.)
37 | O=C(Cn1cc(C(=O)c2ccccc2)c2ccccc21)Nc1ccc(Br)cc1 [BC181215] | + (“+” <20% increase in NMNAT2 luciferase activity.)
38 | O=C(Cn1cc(C(=O)C2CCCCC2)c2ccccc21)NCc1ccccc1 [BC181221] | + (“+” <20% increase in NMNAT2 luciferase activity.)
